Laboratory results published in ChEMBL document CHEMBL1201862, “PubChem BioAssay data set” (2004).
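Five compound concentrations were applied to cells in 96-well plates for 48 hours; endpoints were derived by simple linear interpolation of the resulting dose-response curve. The concentration for 50% growth inhibition is given as GI50.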 Active and inactive are the calls of the source. Cut-off read from the data, not from the text of the source: active = GI50 up to about 1.1 µM and inactive = higher.

Columns and labels:
Assay in all cases: NCI tumour cell line growth inhibition, 48 h
[1] = tested on: 786-0
[2] = tested on: A498
[3] = tested on: A549
[4] = tested on: ACHN
[5] = tested on: BT-549
[6] = tested on: CAKI-1
[7] = tested on: CCRF-CEM
[8] = tested on: COLO 205
[9] = tested on: DU-145
[10] = tested on: EKVX
[11] = tested on: HCC 2998
[12] = tested on: HCT-116
[13] = tested on: HCT-15
[14] = tested on: HL-60
[15] = tested on: HOP-62
[16] = tested on: HOP-92
[17] = tested on: HT-29
[18] = tested on: Hs-578T
[19] = tested on: IGROV-1
[20] = tested on: K562
[21] = tested on: KM12
[22] = tested on: LOX IMVI
[23] = tested on: M14
[24] = tested on: MCF7
[25] = tested on: MDA-MB-231
[26] = tested on: MDA-MB-435
[27] = tested on: MDA-N
[28] = tested on: MOLT-4
[29] = tested on: Malme-3M
[30] = tested on: NCI-H226
[31] = tested on: NCI-H23
[32] = tested on: NCI-H460
[33] = tested on: NCI-H522
[34] = tested on: NCI/ADR-RES
[35] = tested on: OVCAR-3
[36] = tested on: OVCAR-4
[37] = tested on: OVCAR-5
[38] = tested on: OVCAR-8
[39] = tested on: PC-3
[40] = tested on: RPMI-8226
[41] = tested on: RXF 393
[42] = tested on: SF-268
[43] = tested on: SF-295
[44] = tested on: SF-539
[45] = tested on: SK-MEL-28
[46] = tested on: SK-MEL-2
[47] = tested on: SK-MEL-5
[48] = tested on: SK-OV-3
[49] = tested on: SN12C
[50] = tested on: SNB-19
[51] = tested on: SNB-75
[52] = tested on: SR
[53] = tested on: SW-620
[54] = tested on: T47D
[55] = tested on: TK-10
[56] = tested on: U-251
[57] = tested on: UACC-257
[58] = tested on: UACC-62
[59] = tested on: UO-31

Compound: CCOC(=O)C(Cc1ccc(O)cc1)Nc1nc(=O)c2c(=O)oc(Cl)cc2o1 (stereo not drawn)
- GI50 [1]: 9.12 µM (inactive)
- GI50 [2]: 18.2 µM (inactive)
- GI50 [3]: 16.1 µM (inactive)
- GI50 [4]: 12.2 µM (inactive)
- GI50 [5]: 2.47 µM (inactive)
- GI50 [6]: 4.73 µM (inactive)
- GI50 [7]: 2.7 µM (inactive)
- GI50 [8]: 8.49 µM (inactive)
- GI50 [9]: 17.3 µM (inactive)
- GI50 [10]: 12.4 µM (inactive)
- GI50 [11]: 6.59 µM (inactive)
- GI50 [12]: 6.38 µM (inactive)
- GI50 [13]: 4.33 µM
- GI50 [14]: 2.84 µM (inactive)
- GI50 [15]: 12.5 µM (inactive)
- GI50 [16]: 7.31 µM (inactive)
- GI50 [17]: 3.52 µM (inactive)
- GI50 [18]: 3.07 µM (inactive)
- GI50 [19]: 5.09 µM (inactive)
- GI50 [20]: 3.06 µM (inactive)
- GI50 [21]: 10.2 µM (inactive)
- GI50 [22]: 4.62 µM (inactive)
- GI50 [23]: 4.15 µM (inactive)
- GI50 [24]: 4.16 µM (inactive)
- GI50 [25]: 6.1 µM (inactive)
- GI50 [26]: 4.52 µM (inactive)
- GI50 [27]: 2.85 µM (inactive)
- GI50 [28]: 2.81 µM (inactive)
- GI50 [29]: 3.17 µM (inactive)
- GI50 [30]: 19.7 µM (inactive)
- GI50 [31]: 10.9 µM (inactive)
- GI50 [32]: 16.4 µM (inactive)
- GI50 [33]: 4.13 µM (inactive)
- GI50 [34]: 20.9 µM (inactive)
- GI50 [35]: 6.78 µM (inactive)
- GI50 [36]: 12.6 µM (inactive)
- GI50 [37]: 17.8 µM (inactive)
- GI50 [38]: 3.39 µM (inactive)
- GI50 [39]: 8.93 µM (inactive)
- GI50 [40]: 2.67 µM (inactive)
- GI50 [41]: 4.38 µM (inactive)
- GI50 [42]: 3.82 µM (inactive)
- GI50 [43]: 16 µM (inactive)
- GI50 [44]: 5.79 µM (inactive)
- GI50 [45]: 4.13 µM (inactive)
- GI50 [46]: 12.5 µM (inactive)
- GI50 [47]: 8.15 µM (inactive)
- GI50 [48]: 14.4 µM (inactive)
- GI50 [49]: 6.28 µM (inactive)
- GI50 [50]: 10.8 µM (inactive)
- GI50 [51]: 4.91 µM (inactive)
- GI50 [52]: 2.7 µM (inactive)
- GI50 [53]: 3.18 µM (inactive)
- GI50 [54]: 4.61 µM (inactive)
- GI50 [55]: 6.58 µM (inactive)
- GI50 [56]: 7.19 µM (inactive)
- GI50 [57]: 8 µM (inactive)
- GI50 [58]: 11.4 µM (inactive)
- GI50 [59]: 10.9 µM (inactive)

Compound: COC(=O)[C@@H]1C[C@H]([Se]c2ccccc2)CN1C(=O)OCc1ccccc1
- GI50 [1]: 41.7 µM (inactive)
- GI50 [2]: 31.2 µM (inactive)
- GI50 [3]: 29.6 µM (inactive)
- GI50 [4]: 28.1 µM (inactive)
- GI50 [5]: 22.9 µM (inactive)
- GI50 [6]: 36 µM (inactive)
- GI50 [7]: 34.1 µM (inactive)
- GI50 [8]: 23.4 µM (inactive)
- GI50 [9]: 47.2 µM (inactive)
- GI50 [10]: 39.2 µM (inactive)
- GI50 [11]: 87.9 µM (inactive)
- GI50 [12]: 34.1 µM (inactive)
- GI50 [13]: 30.5 µM
- GI50 [14]: 22.6 µM (inactive)
- GI50 [15]: 98.6 µM (inactive)
- GI50 [16]: 33.7 µM (inactive)
- GI50 [17]: 26 µM (inactive)
- GI50 [18]: 64.9 µM (inactive)
- GI50 [19]: 50.6 µM (inactive)
- GI50 [20]: 26.8 µM (inactive)
- GI50 [21]: 30.8 µM (inactive)
- GI50 [22]: 12.6 µM (inactive)
- GI50 [23]: 29.8 µM (inactive)
- GI50 [24]: 20 µM (inactive)
- GI50 [25]: 48.9 µM (inactive)
- GI50 [26]: 24.3 µM (inactive)
- GI50 [27]: 19.2 µM (inactive)
- GI50 [28]: 22 µM (inactive)
- GI50 [29]: 26.2 µM (inactive)
- GI50 [30]: 32.7 µM (inactive)
- GI50 [31]: 20.4 µM (inactive)
- GI50 [32]: 24.8 µM (inactive)
- GI50 [33]: 46.2 µM (inactive)
- GI50 [34]: 39.2 µM (inactive)
- GI50 [35]: 24 µM (inactive)
- GI50 [36]: 24.8 µM (inactive)
- GI50 [37]: > 100 µM (inactive)
- GI50 [38]: 45.3 µM (inactive)
- GI50 [39]: 30.3 µM (inactive)
- GI50 [40]: 24.8 µM (inactive)
- GI50 [41]: 20.2 µM (inactive)
- GI50 [42]: 47.5 µM (inactive)
- GI50 [43]: 35.3 µM (inactive)
- GI50 [44]: 39.8 µM (inactive)
- GI50 [45]: 24 µM (inactive)
- GI50 [46]: 19.5 µM (inactive)
- GI50 [47]: 16.9 µM (inactive)
- GI50 [48]: > 100 µM (inactive)
- GI50 [49]: 45.5 µM (inactive)
- GI50 [50]: 62.7 µM (inactive)
- GI50 [51]: 63.4 µM (inactive)
- GI50 [52]: 26.1 µM (inactive)
- GI50 [53]: 52.6 µM (inactive)
- GI50 [54]: 16 µM (inactive)
- GI50 [55]: 53.5 µM (inactive)
- GI50 [56]: 35.2 µM (inactive)
- GI50 [57]: 31.4 µM (inactive)
- GI50 [58]: 15.1 µM (inactive)
- GI50 [59]: 24.4 µM (inactive)
